The test system of data set [1] is Cryptococcus neoformans (DSM11959). As to the kind of experiment: MIC assay against C. neoformans. Type of data set: cell-based. The conditions noted are these: 35 °C, 24–48 h.
A further data set can be described thus: in vitro. The conditions noted are these: human, Caco-2.
The test system of data set [2] is various human cells, i.e., A498, BEAS-2B, Caco-2, HaCaT, and HepG2.
Data set [3] in a line: Cytotoxicity, resazurin cell viability assay, Caco-2. The conditions noted are these: human.
Data set [4] can be described thus: Cytotoxicity, resazurin cell viability assay, A498. The following applies: human. In general terms: Alamar Blue is a resazurin reagent that responds to reducing activity.
Data set [5] in a line: Cytotoxicity, resazurin cell viability assay, BEAS-2B. The conditions noted are these: human.
The nature of data set [6]: Cytotoxicity, resazurin cell viability assay, HaCaT. The conditions noted are these: human.
Data set [7] is described as follows: Cytotoxicity, resazurin cell viability assay, HepG2. The following applies: human.
For a further data set, the system named is A. fumigatus (DSM 819). As to the kind of experiment: MIC assay, filamentous fungus A. fumigatus. Type of data set: cell-based. The conditions noted are these: Aspergillus fumigatus, DSM819; DSM 819, human pathogen; 35 °C, 24–48 h.
Data set [8] concerns Microdochium bolleyi (DSM 62073). In words: MIC assay, filamentous fungus M. bolleyi. Type of data set: cell-based. The following applies: DSM62073, DSM 62073, plant pathogen, 25 °C, 48–72 h.
For data set [9], the system named is Fusarium graminearum (DSM 1095). In words: microbe, parasite or virus in culture. Type of data set: cell-based. The following applies: DSM1095, read-out: MIC F. graminearum.
Data set [10] relates to Candida auris (DSM 21092). As to the kind of experiment: MIC assay, pathogenic yeast C. auris. Type of data set: cell-based. The following applies: Candidozyma auris, DSM21092, 35 °C, 24–48 h.
Data set [11] deals with Colletotrichum graminicola (DSM 63127). In words: MIC assay, filamentous fungus C. graminicola. It counts as cell-based. The conditions noted are these: DSM63127, DSM 63127, plant pathogen, 25 °C, 48–72 h.
Data set [12] concerns Candida glabrata (DSM 11226). In words: MIC assay, pathogenic yeast C. glabrata. It counts as cell-based. The following applies: Nakaseomyces glabratus, DSM11226, 35 °C, 24–48 h.
Data set [13] concerns Trichophyton rubrum (DSM16111). In words: MIC assay, filamentous fungus T. rubrum. Type of data set: cell-based. The conditions noted are these: DSM16111, human pathogen, 35 °C, 24–48 h.
The subject of data set [14] is Candida tropicalis (DSM 9419). As to the kind of experiment: MIC assay, pathogenic yeast C. tropicalis. It counts as cell-based. The conditions noted are these: DSM9419, 35 °C, 24–48 h.
The test system of data set [15] is Aspergillus flavus (DSM 1959). As to the kind of experiment: MIC assay, filamentous fungus A. flavus. Type of data set: cell-based. The following applies: DSM1959, DSM 1959, plant pathogen, 25 °C, 48–72 h.
In data set [16] the test system is Candida albicans (DSM 10697). In words: MIC assay, pathogenic yeast C. albicans. It counts as cell-based. The conditions noted are these: DSM10697, 35 °C, 24–48 h.
The subject of data set [17] is Penicillium verrucosum (DSM 12639). In words: MIC assay, filamentous fungus P. verrucosum. The conditions noted are these: DSM12639, DSM 12639, plant pathogen, 25 °C, 48–72 h. It counts as cell-based.
A further data set has as its system Magnaporthe oryzae. As to the kind of experiment: microbe, parasite or virus in culture. It counts as cell-based. The conditions noted are these: Pyricularia oryzae, read-out: MIC M. oryzae.
In data set [18] the test system is Staphylococcus aureus (ATCC 6538). As to the kind of experiment: Antibacterial liquid MIC determination, S. aureus. Type of data set: cell-based. The conditions noted are these: ATCC6538, Gram-positive.
Setting [19] is: Cryptococcus neoformans, DSM11959, C. neoformans DSM 11959, lowest concentration totally inhibiting growth.
The mark [20] stands for this setting: C. neoformans DSM 11959, lowest concentration totally inhibiting growth.

The text below walks through data of publication PMC12466757, “1,5-Diarylidene-4-Piperidones as Promising Antifungal Candidates Against Cryptococcus neoformans” (Antibiotics, 2025).

≈ marks a conversion by molar mass, not a printed value.

For the molecule `CCN1C/C(=C\c2ccc(OC)cc2)C(=O)/C(=C/c2ccc(OC)cc2)C1` [1a, 1-ethyl-3,5-bis((E)-4-methoxybenzylidene)piperidin-4-one], in data set [1] (setting [19]), the MIC was 125 µM (≈ 45.4 µg/mL). For the same molecule, the CC50 at 48 h in the data set “in vitro” was found to be 314 µM. Besides, the “CC50 (range depending on the cell model)” value in data set [2] is recorded as 64.9 to >1000.

Molecule `CCN1C/C(=C\c2ccc(C)cc2)C(=O)/C(=C/c2ccc(C)cc2)C1` [1b, 1-ethyl-3,5-bis((E)-4-methylbenzylidene)piperidin-4-one] showed an MIC in data set [1] (setting [19]) of 250 µM (≈ 82.9 µg/mL). Besides, the CC50 at 48 h in “in vitro” was 86.2 µM.

For `CCN1C/C(=C\c2ccc(C#N)cc2)C(=O)/C(=C/c2ccc(C#N)cc2)C1` [1c], in data set [1] (setting [19]), the MIC was determined as 250 µM (≈ 88.4 µg/mL). The same molecule showed a CC50 at 48 h in “in vitro” of 70.3 µM.

As for `CCN1C/C(=C\c2ccc([N+](=O)[O-])cc2)C(=O)/C(=C/c2ccc([N+](=O)[O-])cc2)C1` [1d], the CC50 at 48 h in data set [3] was 95.4 µM; in data set [4], 486 µM; in data set [5], 364 µM; in data set [6], 163 µM; in data set [7], 314 µM. Also, the MIC in [1] (setting [19]) amounted to 250 µM (≈ 98.3 µg/mL).

With `CCN1C/C(=C\c2ccc(Cl)cc2)C(=O)/C(=C/c2ccc(Cl)cc2)C1` [1e], the MIC in data set [1] (setting [19]) was 250 µM (≈ 93.1 µg/mL). For the same molecule, in “in vitro”, the CC50 at 48 h worked out at 98.6 µM.

In turn, `CCN1C/C(=C\c2ccc(C(F)(F)F)cc2)C(=O)/C(=C/c2ccc(C(F)(F)F)cc2)C1` [1f] displayed an MIC in data set [1] (setting [19]) of 250 µM (≈ 110 µg/mL). The CC50 at 48 h in the data set “in vitro” came to 47 µM.

`CCN1C/C(=C\c2ccc(OC)cc2OC)C(=O)/C(=C/c2ccc(OC)cc2OC)C1` [2a, 3,5-bis((E)-2,4-dimethoxybenzylidene)-1-ethylpiperidin-4-one]: the MIC in [1] (setting [20]) and in data set [1] (setting [19]) was more than 250 µM each time.

Regarding `C=CCOc1ccc(/C=C2\CN(CC)C/C(=C\c3ccc(OCC=C)cc3OCC=C)C2=O)c(OCC=C)c1` [2g], the MIC in data set [1] (setting [20]) and in data set [1] (setting [19]) was more than 250 µM each time.

For `CCCCOc1ccc(/C=C2\CN(CC)C/C(=C\c3ccc(OCCCC)cc3OCCCC)C2=O)c(OCCCC)c1` [2h, 3,5-bis((E)-2,4-dibutoxybenzylidene) -1-ethylpiperidin-4-one], the MIC is 31.2 µM (≈ 18.5 µg/mL) in data set [1] (setting [19]); 125 µM (≈ 74 µg/mL) with A. fumigatus (DSM 819); 62.5 µM (≈ 37 µg/mL) in [8]; more than 250 µM in [9]; 31.2 µM (≈ 18.5 µg/mL) in data set [10]; more than 250 µM in data set [11]. Further, the MIC is 31.2 µM (≈ 18.5 µg/mL) in data set [12]; 62.5 µM (≈ 37 µg/mL) in [13]; 250 µM (≈ 148 µg/mL) in data set [14]; more than 250 µM in [15]; 250 µM (≈ 148 µg/mL) in data set [16]; 125 µM (≈ 74 µg/mL) in [17]. Also, the MIC in the data set with Magnaporthe oryzae came to 15.6 µM (≈ 9.23 µg/mL). This molecule had a CC50 at 48 h in the data set “in vitro” of 697 µM.

`CCN1C/C(=C\c2ccc3c(c2)OCO3)C(=O)/C(=C/c2ccc3c(c2)OCO3)C1` [2i] registered an MIC in data set [1] (setting [19]) of 250 µM (≈ 97.9 µg/mL). Further, in “in vitro”, the CC50 at 48 h stood at 152 µM.

In the case of `CCN1C/C(=C\c2ccccc2F)C(=O)/C(=C/c2ccccc2F)C1` [2j], the MIC in data set [1] (setting [19]) was 250 µM (≈ 84.8 µg/mL). The same molecule yielded a CC50 at 48 h in “in vitro” of 68.3 µM.

Turning to `CCN1C/C(=C\c2cnc3ccccc3c2)C(=O)/C(=C/c2cnc3ccccc3c2)C1` [2l], the MIC in [1] (setting [19]) and in data set [18] was 250 µM (≈ 101 µg/mL) throughout. The molecule also had a CC50 at 48 h in the data set “in vitro” of 30 µM.

`CCCCOc1ccc(/C=C2\CN(CC)C/C(=C\c3ccc(OCCCC)c(OCCCC)c3OCCCC)C2=O)c(OCCCC)c1OCCCC` [2m]: the MIC in data set [1] (Cryptococcus neoformans, DSM11959, C. neoformans DSM 11959, […]) is 62.5 µM (≈ 46 µg/mL); with A. fumigatus (DSM 819) it was 250 µM (≈ 184 µg/mL); in data set [8], more than 250 µM; in data set [9] it was more than 250 µM; in data set [10], 31.2 µM (≈ 23 µg/mL); in [11] it was more than 250 µM. Moreover, the MIC in data set [12] is 15.6 µM (≈ 11.5 µg/mL); in [13], 31.2 µM (≈ 23 µg/mL); in [14] it was 250 µM (≈ 184 µg/mL); in data set [15], more than 250 µM; in [16], 125 µM (≈ 92 µg/mL); in data set [17], more than 250 µM. Further, in the data set with Magnaporthe oryzae, the MIC amounted to 62.5 µM (≈ 46 µg/mL). In the data set “in vitro”, this molecule showed a CC50 at 48 h of 687 µM.
